From the supplement of paper PMC10627819

Legend:
Experiment in all cases: fitness (endpoint OD595 vs no drug) (fraction); higher = more growth
[1] = system: S. pneumoniae D39V
Procedure, shortened: (§1)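 Fitness expresses the optical density reached at the stationary-phase transition as a fraction of the robust mean of no-drug control wells. It is capped at 1. Measurements were OD595 every 30 min for 14 h at 37 °C after inoculation of 384-well plates at OD595 0.01 (30 µl, or 55 µl for S. pneumoniae), minus the first reading.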

[2] = system: S. aureus DSM 20231
Procedure, shortened: as §1

[3] = system: S. aureus Newman
Procedure, shortened: as §1
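Note: OD595 on entry to stationary phase over no-drug wells; at most 1.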

O=C(O[C@@H]1Cc2c(O)cc(O)cc2O[C@@H]1c1cc(O)c(O)c(O)c1)c1cc(O)c(O)c(O)c1 [EGCG] + CO/N=C(\C(=O)N[C@@H]1C(=O)N2C(C(=O)[O-])=C(C[N+]3(C)CCCC3)CS[C@H]12)c1csc(N)n1 [Cefepime]
fitness
Conditions | first compound 12.5 µg/mL | first compound 25 µg/mL | first compound 50 µg/mL
[1], partner 0.007 µg/mL | 0.958 | 0.951 | 0.985
[1], partner 0.0078 µg/mL | ≥ 1 | 0.874 | 0.939
[1], partner 0.014 µg/mL | 0.998 | 0.987 | 0.998
[1], partner 0.0155 µg/mL | 0.96 | ≥ 1 | 0.931
[1], partner 0.028 µg/mL | 0.928 | 0.979 | 0.973
[1], partner 0.031 µg/mL | 0.733 | 0.716 | 0.853
[2], partner 0.125 µg/mL | 0.736 | 0.725 | –
[2], partner 0.25 µg/mL | 0.634 | 0.563 | 0.583
[2], partner 0.5 µg/mL | 0.616 | 0.576 | 0.587
[3], partner 0.125 µg/mL | 0.789 | 0.722 | 0.72
[3], partner 0.25 µg/mL | 0.736 | 0.685 | 0.678
[3], partner 0.5 µg/mL | 0.656 | 0.724 | 0.657

O=C(O[C@@H]1Cc2c(O)cc(O)cc2O[C@@H]1c1cc(O)c(O)c(O)c1)c1cc(O)c(O)c(O)c1 [EGCG] + CO[C@@]12[C@H](COC(N)=O)C3=C(C(=O)C(C)=C(N)C3=O)N1C[C@@H]1N[C@@H]12 [Mitomycin C]
fitness
Conditions | first compound 12.5 µg/mL | first compound 25 µg/mL | first compound 50 µg/mL
[1], partner 0.001075 µg/mL | 0.877 | 0.9 | 0.926
[1], partner 0.002 µg/mL | 0.77 | – | 0.777
[1], partner 0.00215 µg/mL | 0.783 | 0.902 | –
[1], partner 0.004 µg/mL | 0.793 | 0.685 | 0.646
[1], partner 0.0043 µg/mL | – | 0.747 | 0.881
[1], partner 0.008 µg/mL | 0.422 | 0.379 | 0.285
[2], partner 0.0156 µg/mL | 0.587 | 0.553 | –
[2], partner 0.0312 µg/mL | 0.595 | 0.574 | –
[2], partner 0.0625 µg/mL | 0.507 | 0.483 | –
[3], partner 0.0156 µg/mL | 0.541 | 0.611 | 0.628
[3], partner 0.0312 µg/mL | 0.547 | 0.528 | 0.488
[3], partner 0.0625 µg/mL | 0.457 | 0.397 | 0.459

CCCCCCCCCC(=O)N[C@H]1[C@H](Oc2c3cc4cc2Oc2ccc(cc2Cl)[C@@H](O[C@@H]2O[C@H](CO)[C@@H](O)[C@H](O)[C@H]2NC(C)=O)[C@@H]2NC(=O)[C@H](NC(=O)[C@@H]4NC(=O)[C@H]4NC(=O)[C@@H](Cc5ccc(c(Cl)c5)O3)NC(=O)[C@H](N)c3ccc(O)c(c3)Oc3cc(O)cc4c3)c3ccc(O)c(c3)-c3c(O[C@H]4O[C@H](CO)[C@@H](O)[C@H](O)[C@@H]4O)cc(O)cc3[C@@H](C(=O)O)NC2=O)O[C@H](CO)[C@@H](O)[C@@H]1O [Teicoplanin] + Cn1nnc(-c2ccc(-c3ccc(N4C[C@H](CO)OC4=O)cc3F)cn2)n1 [Tedizolid]
fitness, main component drawn
Conditions | first compound 0.1562 µg/mL | first compound 0.3125 µg/mL | first compound 0.625 µg/mL
[2], partner 0.0625 µg/mL | 0.808 | 0.89 | 0.949
[2], partner 0.25 µg/mL | 0.066 | 0.0756 | 0.1
[3], partner 0.0625 µg/mL | ≥ 1 | 0.969 | 0.811
[3], partner 0.125 µg/mL | ≥ 1 | 0.97 | 0.779
[3], partner 0.25 µg/mL | – | 0.391 | 0.163

fitness, [3], one replicate, main component drawn
Conditions | first compound 0.62 µg/mL | first compound 1.24 µg/mL | first compound 2.48 µg/mL
partner 0.0625 µg/mL | 0.883 | 0.789 | 0.474
partner 0.125 µg/mL | 0.853 | 0.812 | 0.627
partner 0.25 µg/mL | 0.447 | 0.402 | 0.361
